# Marks after values point to notes of the source that are not given here.
# Tests used:
# [1] = tested on: MIF-induced proliferation of S112 human fibroblasts; test: MIF-induced human fibroblast proliferation (3H-thymidine incorporation); type: cell-based
# Procedure: The activity of a compound of formula (I) was studied in a bioassay utilising MIF-induced proliferation of human dermal fibroblasts. […] S112 human dermal fibroblasts were propagated in RPMI/10% foetal calf serum (FCS). Prior to experimentation, cells were seeded at 10^5 cells/ml in RPMI/0.1% BSA for 18 hours. Cells were treated with recombinant human macrophage migration inhibitory factor (MIF) 50 ng/ml and/or a compound of the invention at a concentration of 1 nM. The compound was combined with MIF at time point −30 minutes, prior to adding to cell culture at time point zero. At time point zero, culture medium was replaced with RPMI/10% FCS and treatments administered. At time point 30 hours, cells were pulsed with 1 μCi ^3H-thymidine. At time point 48 hours, cells were harvested using a semi-automated cell harvester. The radioactivity incorporated into DNA was determined by liquid scintillation counting, with results expressed as ^3H-thymidine incorporation.
# [2] = tested on: IL-1 induced COX-2 expression; test: MIF-dependent IL-1 induced fibroblast cyclooxygenase-2 expression (flow cytometry); type: cell-based, human; conditions: for Mean % inhibition COX2 expression: S112 fibroblasts, IL-1 0.1 ng/ml, 6 h
# Text: The activity of the compounds of formula (I) were further studied in a bioassay utilising MIF-dependent activation of human dermal fibroblasts. Sampey et al have shown that induction of the expression of cyclooxygenase-2 (COX-2) by the cytokine interleukin 1 (IL-1) is dependent upon the presence of MIF, i.e. can be prevented using specific anti-MIF monoclonal antibody ^(17). IL-1-induced COX-2 expression is therefore a MIF-dependent event.
# S112 human dermal fibroblasts were propagated in RPMI/10% foetal calf serum (FCS). Prior to experimentation, cells were seeded at 2×10^5 cells/ml in RPMI/0.1% BSA for 18 hours. […] After 6 hours, cells were collected and intracellular COX-2 protein determined by permeabilisation flow cytometry, as described by Sampey et al ^(18). Cells permeabilised with 0.2% saponin were sequentially labelled with a mouse anti-human COX-2 monoclonal antibody and with sheep-anti-mouse F(ab)2 fragment labelled with fluoroscein isothiocyanate. Cellular fluorescence was determined using a flow cytometer. At least 5000 events were counted for each reading, each of which was performed in duplicate, and the results expressed in mean fluorescence intensity (MFI) after subtraction of negative control-labelled cell fluorescence.
# In Table 2 and FIG. 2, the effect of each concentration of 2-(2-hydroxyethoxy)-2-(4-hydroxy-3-methylphenyl)-1,3-dioxolane (Compound 1) was determined by subtracting the IL-1+ compound-treated cell MFI from the IL-1-treated cell MFI, and expressed as % inhibition.
# [3] = tested on: IL-1 induced COX-2 expression; test: Combination of MIF-antagonist with glucocorticoid: IL-1 induced fibroblast COX-2 expression; type: cell-based, human
# Procedure: S112 human dermal fibroblasts were propagated in RPMI/10% foetal calf serum (FCS). Prior to experimentation, cells were seeded at 2×10^5 cells/ml in RPMI/0.1% BSA for 18 hours. Cells were treated with compound at 1-100 μM and 30 minutes later with recombinant human IL-1 (0.1 ng/ml). After 6 hours, cells were collected and intracellular COX-2 protein determined by permeabilisation flow cytometry, as described by Sampey et al ^(18). Cells permeabilised with 0.2% saponin were sequentially labelled with a mouse anti-human COX-2 monoclonal antibody and with sheep-anti-mouse F(ab)2 fragment labelled with fluoroscein isothiocyanate. Cellular fluorescence was determined using a flow cytometer. At least 5000 events were counted for each reading, each of which was performed in duplicate, and the results expressed in mean fluorescence intensity (MFI) after subtraction of negative control-labelled cell fluorescence.
# The above in vitro assay (Biological Example 2) for analysing the effect of MIF antagonists on IL-1 induced COX-2 expression was performed using 2-(2-hydroxyethoxy)-2-(4′-hydroxy-3′-methylphenyl)-1,3-dioxolane (Compound 1) (50 μM), dexamethasone (1 nM) or a combination of dexamethasone (1 nM) and Compound 1 (50 μM). COX-2 expression was expressed as the mean fluorescence intensity (MFI) as measured by flow cytometry, after deduction of the MFI for control-labelled samples, as described by Sampey et al. ^(18).
# [4] = tested on: S112 human dermal fibroblasts; test: Cytotoxicity: apoptosis by annexin V and propidium iodide flow cytometry; type: cell-based; conditions: 50 μM versus control-treated cells; FIG. 7
# Text: A valuable characteristic of a therapeutic material is a lack of toxicity. The compounds of formula (I) may have low toxicity towards cells. To examine this in vitro, the ability of 2-(2-hydroxyethoxy)-2-(4-hydroxy-3-methylphenyl)-1,3-dioxolane (Compound 1) to induce apoptosis (“programmed cell death) was investigated. A lack of cytotoxicity would be evidenced by the finding of equivalent proportions of apoptotic and viable cells in control- and compound-treated cells.
# To examine the cytotoxicity of compounds of formula (I), S112 human dermal fibroblasts were exposed to a therapeutic concentration (50 μM) of 2-(2-hydroxyethoxy)-2-(4-hydroxy-3-methylphenyl)-1,3-dioxolane (Compound 1) or vehicle (control) and analysed for apoptosis by flow cytometric analysis of annexin V and propidium iodide staining, as described by Leech et al. ^(19). Toxicity was assessed by analysis of apoptosis using flow cytometric detection of cell surface Annexin V binding and propidium iodide staining. At least 5000 events were analysed for each experiment. Cells positive for both Annexin V and propidium iodide were designated as apoptotic and cells negative for both Annexin V and propidium iodide were designated as viable. Results are expressed as the percentage (%) of cells with each of these labels.
# [5] = tested on: antigen-specific T cell activation; test: MIF-dependent antigen-specific T cell activation (splenocytes, 3H-thymidine); type: cell-based, mouse; conditions: 100 nM-10 μM; mBSA 10 μg/ml; spleen cells of immunized C57Bl/6 mice; P<0.05; FIG. 5
# Text: The activity of compounds of formula (I) was further studied in a bioassay utilising MIF-dependent activation of murine T cell activation. The activation of T lymphocytes in response to exposure to a recall antigen is known to be dependent on the presence of MIF, i.e. can be prevented using specific anti-MIF monoclonal antibody^(7). Antigen-induced T cell activation is therefore a MIF-dependent phenomenon.
# Splenocytes were obtained by Hank's buffered saline flushing of spleens obtained from C57Bl/6 mice previously immunized with methylated bovine serum albumin (mBSA, Sigma Chemical Co., Castle Hill, Australia). Mice were immunized on day 0 with 200 μg mBSA emulsified in 0.2 ml of Freund's complete adjuvant (FCA) injected subcutaneously into the flank skin. On day 7, the mice received 100 μg mBSA/0.1 ml FCA by intradermal injection at the base of the tail. Spleens were removed on day 14 after first immunisation and a single cell suspension was prepared in DMEM containing 5% FCS and 0.05% 2-mercaptoethanol. […] The T cell proliferation response was determined by measuring the amount of [^3H] thymidine incorporation during the final 18 hr. The cells were harvested and radioactivity incorporation into the DNA was measured with a Wallac 1409 liquid scintillation counter (Pharmacia, Turku, Finland).
Compound,"Mean cpm (3H-thymidine incorporation) ([1]; S112 cells, MIF 50 ng/ml + compound 1 nM, untreated 3245, MIF alone 4415, n=9)","inhibition of MIF-induced S112 human fibroblast proliferation ([1]; compound 1 nM pre-incubated with MIF, P<0.05)",Mean % inhibition COX2 expression ([2]; 0.01 μM) [%],Mean % inhibition COX2 expression ([2]; 0.1 μM) [%],Mean % inhibition COX2 expression ([2]; 1 μM),Mean % inhibition COX2 expression ([2]; 10 μM),"reduction in IL-1 induced COX-2 expression ([2]; 50 μM, P<0.01, FIG. 2)",Mean % inhibition COX2 expression ([2]; 50 μM),dose dependence of reduction in COX-2 expression ([2]; Table 2 and FIG. 3),"Mean COX-2 expression (MFI) ([3]; IL-1 + dexamethasone 1 nM + Compound 1 50 μM, control 0.7400, IL-1 49.37)","enhancement of dexamethasone inhibition of IL-1-induced COX-2 expression ([3]; dexamethasone 1 nM + Compound 1 50 μM versus dexamethasone alone, P<0.05)",apoptotic cell numbers (Annexin V and propidium iodide positive) [4],viable cell numbers (Annexin V and propidium iodide negative) [4],"inhibition of IL-induced COX-2 expression, MFI ([2]; IL-1+cpd2 versus IL-1, P<0.05, FIG. 4)",reduction in antigen-specific T cell activation [5]
"Cc1cc(C2(OCCO)OCCO2)ccc1O [Compound 1, 2-(2-hydroxyethoxy)-2-(4-hydroxy-3-methylphenyl)-1,3-dioxolane]",2994* cpm,significantly inhibited,10.5,13.2,15.6* %,19.5* %,significant reduction,31.4* %,dose-dependent reduction,6.013* MFI,significantly greater inhibition,No significant increase,no significant decrease,–,–
"OCCOC1(c2ccc(O)cc2)OCCO1 [Compound 2, 2-(2-hydroxyethoxy)-2-(4-hydroxyphenyl)-1,3-dioxolane]",–,–,–,–,–,–,–,–,–,–,–,–,–,Significant inhibition,significant dose-dependent reduction

# — patent US7863313B2, “Methods for the treatment of inflammatory diseases” (Cortical PTY LTD, priority 2003, dated 2011)
